# Results: ChEMBL document CHEMBL5385861, “Development of novel hydrazidoarylaminopyrimidine-based BTK/FLT3 dual inhibitors with potent in vivo anti-hematological malignancies effects” (Eur J Med Chem, 2023)
# What was measured:
# [1] = Toxicity in NOD/SCID mouse xenografted with human JeKo-1 cells assessed as drinking abnormalities at 25 to 50 mg/kg, ip measured for 16 days; type: organism-based; settings: in vivo, 384 h, dose 25-50 mg/kg, time 16 day
# [2] = target: Tyrosine-protein kinase HCK (Homo sapiens) (UniProt P08631); experiment: Inhibition of HCK (unknown origin) at 0.2 uM incubated for 40 mins by radiometric kinase assay relative to control
# Chain of Tyrosine-protein kinase HCK (Homo sapiens) (P08631 2-526 limits assumed): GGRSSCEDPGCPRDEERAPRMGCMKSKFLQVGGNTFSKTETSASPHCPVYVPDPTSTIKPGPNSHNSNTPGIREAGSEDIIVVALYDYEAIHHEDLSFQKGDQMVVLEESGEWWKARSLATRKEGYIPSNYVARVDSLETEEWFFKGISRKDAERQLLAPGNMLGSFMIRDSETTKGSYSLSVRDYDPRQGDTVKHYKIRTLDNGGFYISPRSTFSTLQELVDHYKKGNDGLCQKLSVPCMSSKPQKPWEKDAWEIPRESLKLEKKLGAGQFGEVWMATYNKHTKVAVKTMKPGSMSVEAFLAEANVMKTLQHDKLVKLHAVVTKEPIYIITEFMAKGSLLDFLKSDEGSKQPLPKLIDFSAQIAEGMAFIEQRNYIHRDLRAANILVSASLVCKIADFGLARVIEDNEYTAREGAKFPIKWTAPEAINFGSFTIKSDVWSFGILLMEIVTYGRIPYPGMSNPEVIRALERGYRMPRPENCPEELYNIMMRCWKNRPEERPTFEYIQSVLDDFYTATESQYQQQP
# [3] = target: Tyrosine-protein kinase ITK/TSK (Homo sapiens) (UniProt Q08881); experiment: Inhibition of ITK (unknown origin) at 0.2 uM incubated for 40 mins by radiometric kinase assay relative to control
# [4] = target: Mitogen-activated protein kinase kinase kinase 7 (Homo sapiens) (UniProt O43318); experiment: Inhibition of TAK1 (unknown origin) at 0.2 uM incubated for 40 mins by radiometric kinase assay relative to control
# [5] = tested on: MOLT-4; experiment: Potency index, ratio of sorafenib IC50 to test compound IC50 for antiproliferative activity against human MOLT-4 cells; type: functional
# [6] = target: Cytoplasmic tyrosine-protein kinase BMX (Homo sapiens) (UniProt P51813); experiment: Inhibition of BMX (unknown origin) at 0.2 uM incubated for 40 mins by radiometric kinase assay relative to control
# [7] = tested on: MV4-11; experiment: Antitumor activity against human MV4-11 cells xenografted NOD/SCID mouse assessed as reduction in tumor weight at 10 mg/kg, ip administered once daily for 21 days; type: functional; settings: time 21 day
# [8] = target: Histone deacetylase (Homo sapiens) (UniProt Q13547+O15379+Q9UBN7+Q92769+Q9UQL6+Q8WUI4+Q9BY41+Q96DB2+P56524+Q9UKV0+Q969S8); experiment: Inhibition of HDAC (unknown origin) at 0.2 uM incubated for 40 mins by radiometric kinase assay relative to control; type: protein assay
# [9] = target: Tyrosine-protein kinase SYK (Homo sapiens) (UniProt P43405); experiment: Inhibition of SYK (unknown origin) at 0.2 uM incubated for 40 mins by radiometric kinase assay relative to control
# [10] = tested on: JeKo-1; experiment: Potency index, ratio of ibrutinib IC50 to test compound IC50 for antiproliferative activity against human JeKo-1 cells; type: functional
# [11] = Acute toxicity in ip dosed ICR mouse assessed as change in routine blood analysis at 200 mg/kg, ip measured for 2 weeks; type: organism-based; settings: in vivo, 336 h
# [12] = Acute toxicity in ip dosed ICR mouse assessed as lethal dose measured for 2 weeks; type: organism-based; settings: in vivo
# [13] = Metabolic stability in human liver microsome assessed as intrinsic clearance preincubated with compound for 5 mins followed by NADPH addition and measured upto 60 mins by LC-MS/MS analysis; type: ADME; settings: liver microsomes, time < 65 min, read-out: CLH
# [14] = target: Vascular endothelial growth factor receptor 1 (Homo sapiens) (UniProt P17948); experiment: Inhibition of FLT1 (unknown origin) at 0.2 uM incubated for 40 mins by radiometric kinase assay relative to control
# [15] = target: Dual specificity mitogen-activated protein kinase kinase 6 (Homo sapiens) (UniProt P52564); experiment: Inhibition of MKK6 (unknown origin) at 0.2 uM incubated for 40 mins by radiometric kinase assay relative to control
# Chain of Dual specificity mitogen-activated protein kinase kinase 6 (Homo sapiens) (P52564 whole entry): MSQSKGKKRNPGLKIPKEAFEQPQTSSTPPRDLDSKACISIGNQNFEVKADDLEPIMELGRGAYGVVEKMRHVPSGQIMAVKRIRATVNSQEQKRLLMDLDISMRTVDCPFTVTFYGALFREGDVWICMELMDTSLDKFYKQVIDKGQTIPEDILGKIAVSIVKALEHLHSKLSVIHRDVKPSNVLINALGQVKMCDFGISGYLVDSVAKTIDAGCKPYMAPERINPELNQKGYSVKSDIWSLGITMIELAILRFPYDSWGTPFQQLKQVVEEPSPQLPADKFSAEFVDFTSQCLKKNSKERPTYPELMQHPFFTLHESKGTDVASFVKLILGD
# [16] = tested on: JeKo-1; experiment: cells; settings: Homo sapiens, JeKo-1, 72 h
# Description: Antiproliferative activity against human JeKo-1 cells assessed as inhibition of cell growth incubated for 72 hrs by CCK8 assay
# [17] = target: 1-phosphatidylinositol 4,5-bisphosphate phosphodiesterase gamma-2 (Homo sapiens) (UniProt P16885); experiment: Inhibition of PLCgamma2 phosphorylation in human JeKo-1 cells incubated for 72 hrs by Western blot analysis; type: cell-based; settings: dose 30-750 nM
# Chain of 1-phosphatidylinositol 4,5-bisphosphate phosphodiesterase gamma-2 (Homo sapiens) (P16885 whole entry): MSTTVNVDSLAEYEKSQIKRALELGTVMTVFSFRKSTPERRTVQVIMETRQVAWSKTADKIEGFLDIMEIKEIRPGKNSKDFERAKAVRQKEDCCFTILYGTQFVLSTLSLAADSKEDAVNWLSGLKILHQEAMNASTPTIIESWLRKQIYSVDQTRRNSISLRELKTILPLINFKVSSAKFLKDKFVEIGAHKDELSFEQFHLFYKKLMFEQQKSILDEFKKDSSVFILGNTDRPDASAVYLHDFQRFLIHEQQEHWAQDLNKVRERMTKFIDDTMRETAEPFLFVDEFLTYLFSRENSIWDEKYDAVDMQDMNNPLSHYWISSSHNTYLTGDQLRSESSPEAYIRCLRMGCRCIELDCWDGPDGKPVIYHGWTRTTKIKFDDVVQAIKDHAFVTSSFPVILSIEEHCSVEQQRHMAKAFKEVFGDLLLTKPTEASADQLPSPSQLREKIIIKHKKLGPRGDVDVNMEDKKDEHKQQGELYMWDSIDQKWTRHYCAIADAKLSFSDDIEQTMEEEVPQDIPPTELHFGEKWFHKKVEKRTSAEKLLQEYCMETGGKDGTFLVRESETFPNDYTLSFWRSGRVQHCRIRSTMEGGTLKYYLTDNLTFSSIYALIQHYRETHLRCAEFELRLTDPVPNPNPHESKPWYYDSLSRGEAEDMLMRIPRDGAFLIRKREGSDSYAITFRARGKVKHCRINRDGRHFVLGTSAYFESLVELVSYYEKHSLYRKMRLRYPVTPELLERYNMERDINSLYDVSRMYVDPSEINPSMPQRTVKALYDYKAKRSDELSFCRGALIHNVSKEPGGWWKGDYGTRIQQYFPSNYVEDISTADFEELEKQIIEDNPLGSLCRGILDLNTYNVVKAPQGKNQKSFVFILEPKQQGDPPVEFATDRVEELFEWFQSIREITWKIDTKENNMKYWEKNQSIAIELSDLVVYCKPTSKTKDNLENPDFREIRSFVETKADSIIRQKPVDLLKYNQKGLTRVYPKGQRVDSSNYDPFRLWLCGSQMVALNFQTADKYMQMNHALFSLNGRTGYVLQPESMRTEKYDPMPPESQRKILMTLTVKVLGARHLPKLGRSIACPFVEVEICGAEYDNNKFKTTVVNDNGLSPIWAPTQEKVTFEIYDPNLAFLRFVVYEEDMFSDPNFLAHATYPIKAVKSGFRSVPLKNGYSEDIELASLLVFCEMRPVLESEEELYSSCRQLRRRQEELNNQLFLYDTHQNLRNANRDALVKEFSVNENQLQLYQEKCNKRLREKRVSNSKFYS
# [18] = target: Inhibitor of nuclear factor kappa-B kinase subunit alpha (Homo sapiens) (UniProt O15111); experiment: Inhibition of IKKalpha (unknown origin) at 0.2 uM incubated for 40 mins by radiometric kinase assay relative to control
# Chain of Inhibitor of nuclear factor kappa-B kinase subunit alpha (Homo sapiens) (O15111 whole entry): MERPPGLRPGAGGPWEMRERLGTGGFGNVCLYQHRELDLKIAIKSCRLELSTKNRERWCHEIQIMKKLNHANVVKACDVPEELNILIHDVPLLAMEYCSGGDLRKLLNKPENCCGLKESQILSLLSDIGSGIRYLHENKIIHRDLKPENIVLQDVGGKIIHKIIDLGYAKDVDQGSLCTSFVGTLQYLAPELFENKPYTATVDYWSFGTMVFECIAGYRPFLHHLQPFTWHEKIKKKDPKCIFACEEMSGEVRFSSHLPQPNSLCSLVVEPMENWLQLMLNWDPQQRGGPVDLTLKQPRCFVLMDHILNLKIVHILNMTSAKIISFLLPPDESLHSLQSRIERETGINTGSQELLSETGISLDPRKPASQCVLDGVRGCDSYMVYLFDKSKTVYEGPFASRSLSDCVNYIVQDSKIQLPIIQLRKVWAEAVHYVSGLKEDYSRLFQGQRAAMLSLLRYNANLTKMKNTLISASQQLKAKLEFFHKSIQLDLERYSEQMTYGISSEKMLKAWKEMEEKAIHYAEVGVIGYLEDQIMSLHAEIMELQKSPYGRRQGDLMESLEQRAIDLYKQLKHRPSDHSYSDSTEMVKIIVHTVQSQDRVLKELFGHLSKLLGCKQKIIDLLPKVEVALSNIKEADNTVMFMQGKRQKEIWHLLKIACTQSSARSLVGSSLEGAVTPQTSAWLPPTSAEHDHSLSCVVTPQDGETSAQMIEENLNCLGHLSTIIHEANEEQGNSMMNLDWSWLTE
# [19] = tested on: Tyrosine-protein kinase Tec; experiment: Inhibition of TEC (unknown origin) at 0.2 uM incubated for 40 mins by radiometric kinase assay relative to control; settings: Homo sapiens
# [20] = target: Mast/stem cell growth factor receptor Kit (Homo sapiens) (UniProt P10721); experiment: Inhibition of cKit (unknown origin) at 0.2 uM incubated for 40 mins by radiometric kinase assay relative to control
# [21] = tested on: JeKo-1; experiment: Antitumor activity against human JeKo-1 cells xenografted NOD/SCID mouse assessed as tumor growth inhibition at 50 mg/kg, ip measured for 16 days; type: functional; settings: JeKo-1, 384 h, time 16 day, read-out: TGI
# [22] = target: PI3-kinase p110-alpha/p85-alpha (Homo sapiens) (UniProt P27986+P42336); experiment: Inhibition of PI3 Kinase p110a/p85a (unknown origin) at 0.2 uM incubated for 40 mins by radiometric kinase assay relative to control; type: protein-complex assay
# [23] = Acute toxicity in ICR mouse assessed as animal survival at 240 mg/kg, ip measured for 2 weeks; type: organism-based; settings: in vivo
# [24] = tested on: MOLT-4; experiment: cells; settings: Homo sapiens, MOLT-4, 72 h
# Description: Antiproliferative activity against human MOLT-4 cells assessed as inhibition of cell growth incubated for 72 hrs by CCK8 assay
# [25] = tested on: MV4-11; experiment: Antitumor activity against human MV4-11 cells xenografted in NOD/SCID mouse assessed as tumor growth inhibition at 20 mg/kg ip administered once daily for 21 days; type: functional; settings: MV4-11, 504 h, time 21 day, read-out: TGI
# [26] = Toxicity in NOD/SCID mouse xenografted with human JeKo-1 cells assessed as effect on body weight at 25 to 50 mg/kg, ip measured for 16 days; type: organism-based; settings: in vivo, 384 h, dose 25-50 mg/kg, time 16 day
# [27] = tested on: K562; experiment: cells; settings: Homo sapiens, K562, 72 h
# Description: Antiproliferative activity against human K562 cells assessed as inhibition of cell growth incubated for 72 hrs by CCK8 assay
# [28] = target: Death-associated protein kinase 3 (Homo sapiens) (UniProt O43293); experiment: Inhibition of ZIPK (unknown origin) at 0.2 uM incubated for 40 mins by radiometric kinase assay relative to control
# Chain of Death-associated protein kinase 3 (Homo sapiens) (O43293 whole entry, looked up): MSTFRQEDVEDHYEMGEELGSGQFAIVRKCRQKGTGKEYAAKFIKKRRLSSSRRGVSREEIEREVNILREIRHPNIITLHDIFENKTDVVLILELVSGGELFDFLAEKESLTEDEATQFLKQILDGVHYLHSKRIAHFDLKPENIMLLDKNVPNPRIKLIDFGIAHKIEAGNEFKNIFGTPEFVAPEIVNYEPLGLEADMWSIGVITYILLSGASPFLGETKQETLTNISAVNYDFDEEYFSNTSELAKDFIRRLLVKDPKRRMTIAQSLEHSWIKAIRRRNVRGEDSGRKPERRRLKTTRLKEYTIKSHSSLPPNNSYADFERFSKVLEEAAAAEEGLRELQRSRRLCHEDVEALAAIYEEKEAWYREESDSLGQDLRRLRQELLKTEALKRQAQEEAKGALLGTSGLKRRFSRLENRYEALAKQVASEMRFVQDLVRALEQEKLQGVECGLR
# [29] = Acute toxicity in ICR mouse assessed as animal survival at 585.9 mg/kg, ip measured for 2 weeks; type: organism-based; settings: in vivo
# [30] = tested on: JeKo-1; experiment: Antitumor activity against human JeKo-1 cells xenografted in ip dosed NOD/SCID mouse assessed as suppression of tumor growth measured for 16 days; type: functional, organism-based; settings: dose 25-50 mg/kg, time 16.0 day
# [31] = target: Tyrosine-protein kinase CSK (Homo sapiens) (UniProt P41240); experiment: Inhibition of CSK (unknown origin) at 0.2 uM incubated for 40 mins by radiometric kinase assay relative to control
# Chain of Tyrosine-protein kinase CSK (Homo sapiens) (P41240 2-450 limits assumed): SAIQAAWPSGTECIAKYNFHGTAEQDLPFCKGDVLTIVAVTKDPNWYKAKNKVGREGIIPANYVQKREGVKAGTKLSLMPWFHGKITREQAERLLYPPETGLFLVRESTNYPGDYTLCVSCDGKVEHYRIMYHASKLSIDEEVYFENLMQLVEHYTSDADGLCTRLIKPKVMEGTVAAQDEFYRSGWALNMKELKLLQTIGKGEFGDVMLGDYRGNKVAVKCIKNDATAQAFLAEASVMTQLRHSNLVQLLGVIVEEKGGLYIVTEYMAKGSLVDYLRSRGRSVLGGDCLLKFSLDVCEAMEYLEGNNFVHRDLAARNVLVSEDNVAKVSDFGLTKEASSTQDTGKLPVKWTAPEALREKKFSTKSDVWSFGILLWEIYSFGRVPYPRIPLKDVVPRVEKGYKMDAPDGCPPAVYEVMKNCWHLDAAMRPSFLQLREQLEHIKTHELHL
# [32] = tested on: MOLT-4; experiment: Potency index, ratio of spebrutinib IC50 to test compound IC50 for antiproliferative activity against human MOLT-4 cells; type: functional
# [33] = Toxicity in NOD/SCID mouse xenografted with human JeKo-1 cells assessed as abnormal activity at 25 to 50 mg/kg, ip measured for 16 days; type: organism-based; settings: in vivo, 384 h, dose 25-50 mg/kg, time 16 day
# [34] = target: Epidermal growth factor receptor (Homo sapiens) (UniProt P00533); experiment: Inhibition of EGFR (unknown origin) at 0.2 uM incubated for 40 mins by radiometric kinase assay relative to control
# Chain of Epidermal growth factor receptor (Homo sapiens) (P00533 whole entry): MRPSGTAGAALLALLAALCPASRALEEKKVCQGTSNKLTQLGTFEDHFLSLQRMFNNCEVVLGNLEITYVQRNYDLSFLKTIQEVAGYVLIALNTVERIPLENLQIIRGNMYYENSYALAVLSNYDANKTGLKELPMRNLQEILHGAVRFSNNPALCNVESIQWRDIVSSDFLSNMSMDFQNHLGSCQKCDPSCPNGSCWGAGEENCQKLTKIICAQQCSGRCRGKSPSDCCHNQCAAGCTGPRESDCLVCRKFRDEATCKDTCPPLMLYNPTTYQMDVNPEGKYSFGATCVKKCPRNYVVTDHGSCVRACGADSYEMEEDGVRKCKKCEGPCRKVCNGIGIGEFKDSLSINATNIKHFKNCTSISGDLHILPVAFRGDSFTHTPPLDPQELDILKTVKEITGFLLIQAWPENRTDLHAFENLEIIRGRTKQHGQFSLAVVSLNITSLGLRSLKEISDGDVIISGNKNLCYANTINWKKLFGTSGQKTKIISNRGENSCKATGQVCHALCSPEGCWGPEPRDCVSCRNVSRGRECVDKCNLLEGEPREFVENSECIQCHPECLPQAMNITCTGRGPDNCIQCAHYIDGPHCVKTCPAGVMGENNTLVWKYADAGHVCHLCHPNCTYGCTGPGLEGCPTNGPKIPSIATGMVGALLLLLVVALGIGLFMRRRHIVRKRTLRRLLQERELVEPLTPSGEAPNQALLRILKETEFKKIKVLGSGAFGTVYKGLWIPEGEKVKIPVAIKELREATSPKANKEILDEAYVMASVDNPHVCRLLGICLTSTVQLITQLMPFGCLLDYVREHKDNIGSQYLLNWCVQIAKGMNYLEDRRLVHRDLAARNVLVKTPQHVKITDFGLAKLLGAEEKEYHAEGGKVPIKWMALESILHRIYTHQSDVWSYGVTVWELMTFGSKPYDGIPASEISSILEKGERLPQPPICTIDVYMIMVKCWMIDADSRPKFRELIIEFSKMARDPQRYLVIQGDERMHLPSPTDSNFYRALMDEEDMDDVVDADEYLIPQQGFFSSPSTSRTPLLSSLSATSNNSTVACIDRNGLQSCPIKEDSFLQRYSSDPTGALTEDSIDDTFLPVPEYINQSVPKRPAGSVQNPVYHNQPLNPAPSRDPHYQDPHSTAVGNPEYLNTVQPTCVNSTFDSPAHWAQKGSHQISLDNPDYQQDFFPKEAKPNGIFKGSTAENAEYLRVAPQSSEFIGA
# [35] = tested on: K562; experiment: Potency index, ratio of spebrutinib IC50 to test compound IC50 for antiproliferative activity against human K562 cells; type: functional
# [36] = tested on: JeKo-1; experiment: Induction of apoptosis in human JeKo-1 cells assessed as late apoptotic cells at 150 nM incubated for 72 hrs by Annexin VFITC/PI staining based flow cytometry analysis (reference value: 1.42%); type: functional
smiles,measurement,setting,value
CN1CCN(c2ccc(Nc3ncc(F)c(Nc4ccccc4C(=O)NN)n3)cc2)CC1,Activity,[1],Non-Toxic
same,inhibition,[2],27%
same,inhibition,[3],65%
same,inhibition,[4],26%
same,Ratio IC50,[5],1.3
same,inhibition,[6],79%
same,Activity,[7],0.33 g
same,inhibition,[8],5%
same,inhibition,[9],4%
same,Ratio IC50,[10],6
same,Activity,[11],Non-Toxic
same,LD50 at 336 h,[12],343 mg/kg
same,CLint scaled,[13],1.81 L/h/kg
same,inhibition,[14],100%
same,inhibition,[15],10%
same,IC50,[16],0.017 µM
same,inhibition,[17],Dose-Dependent Effect
same,inhibition,[18],17%
same,inhibition,[19],47%
same,inhibition,[20],10%
same,inhibition in vivo at 50 mg/kg,[21],79.8%
same,inhibition,[22],13%
same,survival at 336 h,[23],100%
same,IC50,[24],0.011 µM
same,inhibition in vivo at 20 mg/kg,[25],100%
same,Activity,[26],Non-Toxic
same,IC50,[27],0.93 µM
same,inhibition,[28],26%
same,survival at 336 h,[29],0%
same,Activity,[30],Dose-Dependent Effect
same,inhibition,[31],6%
same,Ratio IC50,[32],8
same,Activity,[33],Non-Toxic
same,inhibition,[34],8%
same,Ratio IC50,[35],8
same,Activity,[36],1.65%
